The values that follow come from PubChem BioAssay AID1996.

For orientation: kinetic solubility means solubility judged after dilution from a stock solution rather than from solid.

Values after ≈ are worked out from the molar mass of the structure shown. Bounds are passed on as bounds.

For the series the following is noted: buffer; pH 7.4; 200.0 µM.
Turning to `CN(c1ccccc1)c1nc(N)c([N+](=O)[O-])c(N2CCCCC2)n1`, the kinetic solubility was determined as 13 µg/mL (≈ 39.6 µM).
`O=C(Nc1ccc(C(=O)N2CCCC2)cc1)c1ccccc1[N+](=O)[O-]` gave a solubility (kinetic) of 48.2 µg/mL (≈ 142 µM).
`C#CCn1c2ccccc2c2nc3ccccc3nc21`: the kinetic solubility was below 0.2 µg/mL.
`COc1cccc(NC(=O)COc2cccnc2[N+](=O)[O-])c1` yielded a solubility (kinetic) of 5.8 µg/mL (≈ 19.1 µM).
With `CCC1(CC)NC(=O)N(CC(=O)Nc2cccc3ccccc23)C1=O` the figure was above 50.9 µg/mL; with `Cc1cc(C)c(C(=O)NNC(=O)c2cccnc2)c(C)c1`, above 42.5 µg/mL.
Regarding `O=C(NC(=S)Nc1ccccc1CO)C1CCCCC1`, the kinetic solubility is above 43.9 µg/mL.
With `CC(C)[C@H](NC(=O)c1ccccc1)C(=O)NC1CCCCCCC1` the figure was 1.8 µg/mL (≈ 5.45 µM); with `Cc1cccc(OCC(=O)NCCCNC(=O)c2ccc(C)nc2)c1`, above 51.2 µg/mL.
`Cc1ccc(C2=N/C(=C\c3cccc(F)c3)C(=O)O2)cc1`: the solubility (kinetic) is below 0.6 µg/mL.
With `CCN(Cc1ccccc1)C(=O)COC(=O)c1cc(Cl)nc(Cl)c1` the figure was above 55.1 µg/mL; with `Cc1ccc(C)c(N2CC(C(=O)O)CC2=O)c1` (configuration not stated), above 35 µg/mL; with `CCOc1nc(-c2ccccc2)c2cc(C)ccc2n1`, 4.8 µg/mL (≈ 18.2 µM).
`O=C(N/C(=C\c1ccccc1)C(=O)N1CCCCC1)c1ccc(Br)o1` had a solubility (kinetic) above 60.5 µg/mL.
Regarding `COc1ccc(/C=C(\C)C(=O)c2c(C)cc(C)[nH]c2=O)cc1`, the kinetic solubility was determined as 42.9 µg/mL (≈ 144 µM).
With `CC(=O)Oc1ccc(C(=O)Nc2cccc3c2CCCC3)cc1` the figure was 3.4 µg/mL (≈ 11 µM); with `O=C(O)C1CCN(C(=O)c2cccc3ccccc23)CC1`, above 42.5 µg/mL.
With `Cc1ccc(S(=O)(=O)N2CCC3(CC2)OCCO3)c(C)c1`, the kinetic solubility is above 46.7 µg/mL.
`O=C(COC(=O)CC1CCS(=O)(=O)C1)Nc1ccc(F)cc1` (configuration not stated) gave a kinetic solubility above 49.4 µg/mL.
As for `O=C1CN(S(=O)(=O)c2cccc(C(=O)O)c2)c2ccccc2N1`, the figure is above 49.8 µg/mL; as for `S=C(Nc1ccccc1)N1CCN(Cc2ccccc2)CC1`, above 46.7 µg/mL.
As for `Cc1ccc(NC(=O)c2ccc(S(=O)(=O)N3CCOCC3)cc2)c(C)c1`, the figure is 5.2 µg/mL (≈ 13.9 µM); as for `CC(C)(C)C(=O)N1CCn2c1nc1ccccc12`, 31.9 µg/mL (≈ 131 µM).
As for `CNC(=S)NC1CC2CCCC(C1)N2Cc1ccc(C)cc1` (configuration not stated), the figure is 45.9 µg/mL (≈ 145 µM); as for `O=c1[nH]c(O)c(/C=C2\C=Nc3ccc(Br)cc32)[nH]1`, 3.3 µg/mL (≈ 10.8 µM); as for `Cc1ccc(C)c(NC(=S)N2CCCCC2CO)c1` (configuration not stated), above 41.8 µg/mL.
`O=C(O)/C=C/C(=O)Nc1ccc(S(=O)(=O)N2CCCC2)cc1` gave a kinetic solubility above 48.7 µg/mL.
With `CC(C)c1ccc(-c2csc3nc[nH]c(=O)c23)cc1` the figure was 9.1 µg/mL (≈ 33.7 µM); with `NC(=O)COc1ccccc1`, 21 µg/mL (≈ 139 µM); with `COC(=O)c1sccc1NC(=S)Nc1ccc(OC)cc1`, 35.3 µg/mL (≈ 109 µM).
Molecule `COc1ccc(CCNCc2sccc2C)cc1OC.Cl` returned a solubility (kinetic) of 36 µg/mL.
With `c1ccc(Oc2cccc(Oc3ccccc3)n2)cc1` the figure was below 0.6 µg/mL; with `COc1ccc2oc(C(=O)NCC3CCCO3)c(C)c2c1` (configuration not stated), 39.8 µg/mL (≈ 138 µM).
Regarding `CCCCCc1ccc(CC(=O)N2CCOCC2)cc1`, the kinetic solubility amounted to 38.6 µg/mL (≈ 140 µM).
Take `CC1C(=O)N2CCCc3cc(NC(=O)C4CCCCC4)cc1c32` (configuration not stated): the solubility (kinetic) is above 46.9 µg/mL.
`Nc1cccc2cnccc12` displayed a kinetic solubility of 1.4 µg/mL (≈ 9.71 µM).
As for `CC1CC(C)CN(C(=O)C2CC(=O)N(c3ccc(F)cc3)C2)C1` (configuration not stated), the figure is 34.7 µg/mL (≈ 109 µM).
With `COc1cc(C)ccc1S(=O)(=O)NC1CC(C)(C)NC(C)(C)C1` the figure was 35 µg/mL (≈ 103 µM); with `CC(=O)Nc1nccc(-c2cc(-c3ccccc3)no2)n1`, 2.1 µg/mL (≈ 7.49 µM).
`CCN(Cc1nc(-c2ccc(OC)cc2)no1)C(=O)c1ccoc1C` yielded a solubility (kinetic) of 41.1 µg/mL (≈ 120 µM).
With `O=C(CCN1C(=O)c2ccccc2S1(=O)=O)Nc1ccccc1F` the figure was above 52.3 µg/mL; with `COc1ccc(NC(=O)NCCCCc2ccccc2)c(OC)c1`, 0.7 µg/mL (≈ 2.13 µM); with `CC(C)N(Cc1ccccc1)C(=O)CN1c2cccc3cccc(c23)S1(=O)=O`, 11 µg/mL (≈ 27.9 µM).
For `COc1cc(CN=Cc2c(O)n(C(C)(C)C)c(=O)[nH]c2=O)cc(OC)c1`, the kinetic solubility came out at 2.8 µg/mL (≈ 7.75 µM).
As for `O=C(CSc1nc2ccccc2c(=O)[nH]1)Nc1ccccc1O`, the solubility (kinetic) was 3.8 µg/mL (≈ 11.6 µM).
As for `O=C(O)CNC(=O)/C=C/c1c(Cl)cccc1Cl`, the figure is above 41.1 µg/mL; as for `CC(NC(=O)c1ccccc1)C(=O)NC1CCCc2ccccc21` (configuration not stated), 14.7 µg/mL (≈ 45.6 µM).
With `Cc1ccc(S(=O)(=O)N2CCOCC2)cc1NC(=O)COC(=O)CCc1c[nH]c2ccccc12` the figure was 26.4 µg/mL (≈ 54.4 µM).
Regarding `Cc1ccc(Nc2ccccc2N)cc1`, the solubility (kinetic) came out at 23.1 µg/mL (≈ 117 µM).
With `COc1ccccc1NS(=O)(=O)c1ccc2ccccc2c1` the figure was 12.1 µg/mL (≈ 38.6 µM); with `O=C(COC(=O)Cc1ccc(Cl)cc1)Nc1ccccc1F`, 20.8 µg/mL (≈ 64.6 µM).
As for `Cc1ccccc1CC(=O)NCCN1CCCCC1`, the figure is above 39.1 µg/mL.
